Source: US9657260B2, “Method and system for continous monitoring of toxicity” (Yissum Research Development Company of The Hebrew …, priority 2014, dated 2017)
Where “and” joins values, the source holds several entries; their conditions need not be identical. Identical values can stand only once. Entries after “also recorded” stand apart in the source; their conditions may differ.

How the values were obtained:
HepG2/C3A spheroids = format: cell-based, human
Experimental: Quantitative Real Time Polymerase Chain Reaction (qRT-PCR). RNA was isolated and purified utilizing Macherey-Nagel NucleoSpin RNA II kit according to manufacturer instructions. RNA concentration and purity was determined using NanoDrop ND-1000 spectrophotometer (Thermo Fisher Scientific, USA). cDNA was synthesized from 1 μg RNA sample using qScript cDNA SuperMix (Quanta BioSciences, USA) according to the manufacturer protocol. Gene expression analysis was carried out utilizing KAPA SYBR FAST Universal 2X qPCR Master Mix (Kapa Biosystems, Boston, USA) on BioRad CFX96 Real-Time System (New South Wales, Australia), according to the manufacturer protocol. Gene transcription was evaluated using the ΔΔCt method normalized to 60S ribosomal protein L32 (RPL32) or ubiquitin C (UBC).

HeLa cells = assay: Real-time oxygen uptake of HeLa cells in the bioreactor; format: cell-based, human; conditions: for effect of ascorbate and TMPD on the loss of oxygen uptake: 10 μM, preincubation with 2 mM ascorbate and 0.5 mM TMPD
From the text: Chemical compound injection.
Oxygen measurement. […] Thus, the camera port was kept available for imaging.

HepG2/C3A cells [1] = assay: in vitro; conditions: for % of normal respiration: within 60 minutes (fast phase); for time to onset of mitochondrial (respiratory) damage: human
Experimental: (§1) Reactor Seeding. The following steps of cell seeding and reactor assembly were carried out in a sterile hood. Prior to seeding cells into the reactor, the PDMS-based well unit and all tubings were cleaned and sterilized with 70% EtOH, washed with ddH2O, dried and subsequently exposed to UV light for at least 30 min. The cells were detached from the tissue culture substrate with trypsin-EDTA (Biochrom, Berlin, Germany), counted, centrifuged at 280 rpm for 5 min at 4° C. and resuspended with 100 μl of collagen type I solution to a final density of 4×10^6 cells per device. During resuspension of the cells, 300 μg to 500 μg oxygen sensing beads (CPOx-50-RuP, Colibri Photonics, Potsdam, Germany) were added, resulting in at least ten to 20 beads per microwell after completion of the cell seeding protocol. The collagen type I solution was made of 560 μl ddH2O, 100 μl PBS (10×), 6.25 μl of 1 N NaOH and 333 μl of collagen type I (3.6 mg ml^−1, BD Biosciences, San Jose, Calif., USA). The PDMS microwells were primed for 5 min on ice with this solution in order to eliminate air bubbles from the wells. Subsequently, 100 μl of collagen type I suspension containing cells and oxygen-sensing beads was placed on top of the PDMS-based well unit, thus covering all nine microwells. The unit was kept in a sterile 50.8 mm petri dish placed on ice for 5 min in order to allow the cells to sediment into the wells. The low temperature prevented premature collagen polymerization and the induction of cellular stress response pathways. Afterwards, excess cell and microbead suspension was gently but thoroughly wiped off the PDMS-based well unit using a sterile glass coverslip (FIG. 2C) leading to a concentration of 100,000 cells/well. The inoculated well unit was then incubated for 5 min at 37° C. in a humidified cell incubator (see above) at 5% CO2 in order to polymerize the collagen and by this immobilize the cells and microbeads in the wells. Following polymerization, the well unit, loaded with the cells, was immersed in 5 ml of MEM medium (composition see above) for 20 min at 37° C. in a cell incubator (see above). Subsequently, the PDMS-based well unit was transferred into the bioreactor. After sealing, the bioreactor was placed into the climate control chamber (37° C., ACUO2, Evotec, Germany) of an inverted fluorescence microscope (IX81, Olympus, Japan) and perfused with MEM (composition see above) supplemented with 10 mM HEPES with a flow rate of 10 μl min^−1 using a syringe pump (Harvard Apparatus, USA). The automated and motorized microscope stage was equipped with a holder for three microreactors, allowing for performing three experiments simultaneously.
(§2) Chemical compound injection. […] Succinate as the substrate for complex II was used as an electron donor for the putatively toxicologically affected complex I in the mitochondrial electron transfer system (ETS), whereas TMPD was used to donate electrons to cytochrome c in order to test for a putative toxicological effect on complex III in the ETS. Ascorbate was used to maintain TMPD in a reduced state. The cytotoxic effects were evaluated by real-time monitoring of the change in oxygen consumption and for subsequent confirmation of the toxicological endpoints also by specific conventional staining assays (see below).
(§3) Oxygen measurement. Real-time oxygen measurements were performed optically by means of phosphorescence quenching. Biocompatible polystyrene microbeads with a diameter of 50 μm equipped with a ruthenium-phenanthroline-based phosphorescence dye (CPOx-50-RuP, Colibri Photonics, Potsdam, Germany) were used as microprobes and were coimmobilized with the cells (FIG. 1D) in the collagen matrix during reactor seeding (described above). The electronic measurement system (OPAL, Colibri Photonics, Germany) comprises a control module, an LED as the excitation source and a detector unit (FIG. 1A).

HepG2/C3A cells [2] = assay: HCS LipidTOX staining for steatosis and phospholipidosis; format: cell-based, human; conditions: 24 hr exposure to amiodarone (200 pM as printed elsewhere in the source)
Experimental: Steatosis and phospholipidosis were evaluated using the HCS LipidTOX™ system (Life Technologies, USA) according to manufacturer directions. Briefly, cells were incubated with green neutral lipid and red phospholipidosis dyes and counterstained with 1 μg/mL Hoechst 33342 for 30 min, and washed with PBS. LipidTOX green and red staining intensity were normalized to number of Hoechst-labeled nuclei.

HepG2/C3A cells [3] = assay: Electrochemical glucose and lactate sensing at the bioreactor outflow; format: cell-based, human; conditions: 50 μM; for lactate over glucose ratio reached after exposure: before exposure 1.3 (rotenone), 1.2 (Troglitazone)
Experimental: Cells respond to mitochondrial dysfunction by adapting their metabolic response to circumvent oxidative phosphorylation. To track this response electrochemical sensors for glucose and lactate were attached to bioreactor outflow in a PMMA housing with 16 μl dead volume (FIG. 5 A-C). Samples were collected sequentially using a computer controlled microfluidic switchboard (FIG. 5D). Micromechanical valves (FIG. 5E) introduced a sequence of (1) washing buffer, (2) air bubble interface, and (3) a bioreactor sample every hour. Proof of principle was shown with 50 μM rotenone, a direct mitochondrial C1 inhibitor, causing an 80% loss in respiration (FIG. 5F). […] Importantly, the system is sensitive enough to detect minute signals and off target effects. […] Lactate over glucose ratio increases slightly from 1.2 to 1.8, showing a shift toward glycolysis (FIG. 5I).

in vitro = conditions: human
Experimental: as §1, §2, §3

[4] = HeLa cells, 12.5 mM acetaminophen

In the case of `C[S+](C)[O-]` [DMSO], the cell viability (HepG2/C3A spheroids) is reported as “little affect on cell viability”, the “increase in PXR expression” value (HepG2/C3A spheroids) is reported as 8 fold and the “increase in MRP3 expression” value (HepG2/C3A spheroids; 1%, 28 days) is reported as 10 fold.

In the case of Antimycin A, the “effect of ascorbate and TMPD on the loss of oxygen uptake” value (HeLa cells; HeLa) is reported as “abrogated” and the “effect of ascorbate and TMPD on the loss of oxygen uptake” value (HeLa cells; HeLa, listed as antimycin A) is reported as “abrogated the toxic response”.

For `CC(=O)Nc1ccc(O)cc1` [acetaminophen], the “% of normal respiration” value (HepG2/C3A cells [1]; 8 mM acetaminophen) was 70%, the “% of normal respiration” value (HepG2/C3A cells [1]; 12.5 mM acetaminophen) was 55% and the “% of normal respiration” value (HepG2/C3A cells [1]; 16 mM acetaminophen) was 25%. For the same compound, the “mitochondrial respiration immediately after exposure” value (HeLa cells; [4]) was “identical rapid loss of mitochondrial respiration; also recorded: identical immediate loss of mitochondrial respiration”, the “second dose-independent phase of toxicity” value (HeLa cells; [4]) was “failed to display the second dose-independent phase of toxicity; also recorded: absent in HeLa cells” and the “time at which the rapid loss of respiration ends” value (HeLa cells; [4]) was 60 min. For the same compound, the “effect of ascorbate and TMPD on the toxic response” value (HeLa cells; HeLa, 12.5 mM acetaminophen, 2 mM ascorbate and 0.5 mM TMPD) was “eliminated the toxicity; also recorded: abrogated the toxic response” and the “effect of succinate on the toxic response” value (HeLa cells; HeLa, 12.5 mM acetaminophen, preincubation with 20 mM succinate) was “no effect on the toxicity; also recorded: did not affect HeLa response”.

With `CCCCc1oc2ccccc2c1C(=O)c1cc(I)c(OCCN(CC)CC)c(I)c1` [amiodarone] the “time to onset of mitochondrial (respiratory) damage” value (“time to onset of mitochondrial” below) (HepG2/C3A cells [1]; 200 µM) was 15 h, the “time to onset of mitochondrial” value (HepG2/C3A cells [1]; 500 µM) was 6 h and the “time to onset of mitochondrial” value (HepG2/C3A cells [1]; 1000 µM) was 2 h. For the same compound, the “increase in intracellular lipids (steatosis)” value (HepG2/C3A cells [2]) was 2.1 fold and 2 fold and > 2 fold and the increase in phospholipidosis (HepG2/C3A cells [2]) was 2.4 fold and 2.5 fold and > 2 fold.

In the case of `C=C(C)[C@H]1Cc2c(ccc3c2O[C@@H]2COc4cc(OC)c(OC)cc4[C@@H]2C3=O)O1` [rotenone], the loss in respiration (HepG2/C3A cells [1]; 50 μM) is reported as 80%, the “glucose uptake after 6 hours” value (HepG2/C3A cells [3]; after 6 hours, shift to glutaminolysis) is reported as “loss of glucose uptake” and the “lactate over glucose ratio reached after exposure” value (HepG2/C3A cells [3]) is reported as 2.5.

For `Cc1c(C)c2c(c(C)c1O)CCC(C)(COc1ccc(CC3SC(=O)NC3=O)cc1)O2` (centres unmarked) [Troglitazone], the CC50 (in vitro) was 300 µM and the “lactate over glucose ratio reached after exposure” value (HepG2/C3A cells [3]) was 1.8.
